Measurements taken from patent publication US20230364121A1 (priority 2020, published 2023).
Like-named read-outs stand apart in the source and are kept apart here.

Assays:
[1] = Cytotoxicity in mock infected MES-1 cells (MTT); format: cell-based; settings: mock infected MES-1 cells, Table 3A
Method: (§1) To determine the cytotoxicity, cells were seeded at an initial density of 1×10^6 cells/mL in 96 well plates containing Minimum Essential Medium with Earles's salts (MEM-E), L-glutamine, 1 mM sodium pyruvate and 25 mg/L kanamycin, supplemented with 10% fetal bovine serum. Cell cultures were then incubated at 37° C. in a humidified 5% CO2 atmosphere in the absence or presence of serial dilutions of test compounds. Cell viability was determined by the MTT method.

[2] = tested on: HCoV; experiment: microbe, parasite or virus in culture; format: cell-based, human coronavirus
[3] = tested on: mock infected BHK cells; experiment: Cytotoxicity in mock infected BHK cells (MTT); format: cell-based, hamster; settings: Table 2B; MTT, 3 days
Method: as §1
(§2) Uninfected cells in the presence of serially diluted compound were used to assess the cytotoxicity of compounds.

[4] = tested on: HCoV; experiment: microbe, parasite or virus in culture; format: cell-based, human coronavirus; remark: listed apart in the source
[5] = molecular target: T1, SARS-Cov-1 nsp12:7L8:8 polymerase complex (Severe acute respiratory syndrome coronavirus, UniProt P0C6X7); experiment: biochemical; format: biochemical
[6] = molecular target: T1, SARS-Cov-1 nsp12:7L8:8 polymerase complex; format: biochemical
[7] = Bronchoalveolar lavage and plasma PK / safety study in healthy participants; format: in vivo, human
Method: Two cohorts of 8 healthy participants have been enrolled to receive AT-527 at 275 or 550 mg BID orally for 2.5 days. At 4 and 12 h following the last dose, each participant (4/timepoint/cohort) underwent a single bronchoalveolar lavage (BAL) via a standard bronchoscope. Intensive plasma PK sampling was also performed after the last dose. BAL and plasma samples were assayed for AT-273. AT-273 levels in lung epithelial lining fluid (ELF) were calculated by correcting for urea levels in the BAL and the corresponding plasma samples. Safety assessments included adverse events (AEs), vital signs, electrocardiograms (ECGs), and standard laboratory tests.

[8] = tested on: mock infected MES-1 cells; experiment: Cytotoxicity in mock infected MES-1 cells (MTT); format: cell-based; settings: Table 3B, 3 days
Method: as §1

[9] = Cytotoxicity in mock infected BHK cells (MTT); format: cell-based, hamster; settings: hamster
Method: as §1, §2

[10] = molecular target: nsp12 NiRAN active-site (Severe acute respiratory syndrome coronavirus, UniProt P0C6X7); experiment: biochemical; format: biochemical, SARS-CoV
[11] = tested on: SARS-CoV and SARS-CoV-2 RTCs; format: biochemical
[12] = molecular target: nsp12:7:8 RTC (Severe acute respiratory syndrome coronavirus, UniProt P0C6X7); format: biochemical, SARS-CoV
[13] = tested on: HCoV-229E; experiment: Virus-induced CPE assay, HCoV-229E in BHK-21 cells (MTT); format: cell-based; settings: Human coronavirus 229E, BHK-21, 72 h, BHK-21; dye staining; 3-day incubation; read-out: EC50
Method: In an initial screening, BHK-21 cells acutely infected with a seasonal human alpha coronavirus, HCoV-229E, were exposed to serial dilutions of Compound 1A.
BHK-21 cells: Test compounds were dissolved in DMSO at 100 mM and then diluted in Minimum Essential Medium with Earle's salts (MEM-E) containing 1 mM sodium pyruvate and 25 μg/mL kanamycin, supplemented with 10% FBS (growth medium) to final concentrations of 100, 20, 4 and 0.8 μM (two […] replica plates each). After BHK-21 cells were grown to confluency in 96-well plates, growth medium was replaced with fresh maintenance medium (growth medium with 1% inactivated FBS in place of 10% FBS) containing serially diluted test compound and HCoV-229E at a multiplicity of infection (MOI) of 0.01. Uninfected cells in the presence of serially diluted compound were used to assess the cytotoxicity of compounds. After a 3-day incubation at 37° C. in a humidified 5% CO2 atmosphere, cell viability was determined by the MTT method (Pauwels, R et al. J. Virol. Methods 20(4):309-321 (1988)).

[14] = unidentified human coronavirus, 72 h
[15] = AT-527 550 mg BID orally 2.5 days, 4 and 12 h after last dose
[16] = mock infected BHK cells, Table 2A, MTT, 3 days
[17] = unidentified human coronavirus, BHK-21, 72 h

CCC(CC)COC(=O)[C@H](C)N[P@](=O)(OC[C@H]1O[C@@](C#N)(c2ccc3c(N)ncnn23)[C@H](O)[C@@H]1O)Oc1ccccc1 [drawing 251]
CC50 at 3 days [1]: > 100 µM | EC50 [2, 14]: 6 µM

CC(C)[C@H](N)C(=O)O[C@@H]1[C@@H](CO)O[C@@H](n2ccc(N)nc2=O)[C@]1(C)O [drawing 245]
CC50 [3]: > 100 µM

CNc1nc(N)nc2c1ncn2[C@@H]1O[C@H](CO[P@@](=O)(N[C@@H](C)C(=O)OC(C)C)Oc2ccccc2)[C@@H](O)[C@@]1(C)F [drawing 239]
CC50 [3]: > 100 µM | EC50 [4]: 2 µM

CC(C)OC(=O)[C@H](C)N[P@](=O)(OCC1O[C@@H](n2ccc(=O)[nH]c2=O)[C@](C)(F)[C@@H]1O)Oc1ccccc1 (stereo partly drawn) [drawing 248]
CC50 at 3 days [1]: > 100 µM | EC50 [2, 14]: > 100 µM

C[C@@]1(F)[C@H](O)[C@@H](COP(=O)(O)OP(=O)(O)OP(=O)(O)O)O[C@H]1n1ccc(=O)[nH]c1=O [2′C-Me 2′F-UTP, reference compound]
EC50 [5]: 20 to 40 µM | incorporation efficacy compared to misincorporation at a U position [6]: around 40%

CCC(CC)COC(=O)[C@H](C)N[P@](=O)(OC[C@H]1O[C@@](C#N)(c2ccc3c(N)ncnn23)[C@H](O)[C@@H]1O)Oc1ccccc1 [drawing 244]
CC50 [3]: > 100 µM | EC50 [4]: 7 µM

C[C@@]1(F)[C@H](O)[C@@H](CO)O[C@H]1n1cnc2c(=O)[nH]c(N)nc21 [AT-273]
Mean AT-273 level in lung ELF [7, 15]: ≥ 0.5 µM | Mean AT-273 level in plasma [7, 15]: ≥ 0.5 µM | correlation of ELF and plasma levels (r) ([7]; P<0.001): 0.86

CC(C)(CO)C(=O)SCCOP(=O)(NCc1ccccc1)OC[C@H]1O[C@@H](n2cnc3c(=O)[nH]c(N)nc32)[C@](C)(O)[C@@H]1O (stereo partly drawn) [drawing 243]
CC50 [3]: 65 µM | EC50 [4]: 1.9 µM

CNc1nc(N)nc2c1ncn2[C@@H]1O[C@H](CO[P@](=O)(N[C@@H](C)C(=O)OC(C)C)Oc2ccccc2)[C@@H](O)[C@@]1(C)F [drawing 254]
CC50 [8]: > 100 µM | EC50 [2]: 2.2 µM

CNc1nc(N)nc2c1ncn2[C@@H]1O[C@H](CO[P@](=O)(N[C@@H](C)C(=O)OC(C)C)Oc2ccccc2)[C@@H](O)[C@@]1(C)F [drawing 233]
CC50 at 3 days [9, 16]: > 100 µM | EC50 [4, 17]: 2.5 µM

CC(C)(CO)C(=O)SCCOP(=O)(NCc1ccccc1)OC[C@H]1O[C@@H](n2cnc3c(=O)[nH]c(N)nc32)[C@](C)(O)[C@@H]1O (stereo partly drawn) [drawing 257]
CC50 [8]: 82 µM | EC50 [2]: 1.7 µM

CNc1nc(N)nc2c1ncn2[C@@H]1O[C@H](CO[P@](=O)(N[C@@H](C)C(=O)OC(C)C)Oc2ccccc2)[C@@H](O)[C@@]1(C)F [drawing 240]
CC50 [3]: > 100 µM | EC50 [4]: 2.9 µM

CC(C)OC(=O)[C@H](C)N[P@](=O)(OCC1O[C@@H](n2ccc(=O)[nH]c2=O)[C@](C)(F)[C@@H]1O)Oc1ccccc1 (stereo partly drawn) [drawing 234]
CC50 at 3 days [9, 16]: > 100 µM | EC50 [4, 17]: > 100 µM

CC(C)OC(=O)[C@H](C)N[P@](=O)(OCC1O[C@@H](n2ccc(=O)[nH]c2=O)[C@](C)(F)[C@@H]1O)Oc1ccccc1 (stereo partly drawn) [drawing 241]
CC50 [3]: > 100 µM | EC50 [4]: > 100 µM

CC(C)(CO)C(=O)SCCOP(=O)(NCc1ccccc1)OC[C@H]1O[C@@H](n2cnc3c(=O)[nH]c(N)nc32)[C@](C)(O)[C@@H]1O (stereo partly drawn) [drawing 236]
CC50 at 3 days [9, 16]: 65 µM | EC50 [4, 17]: 1.7 µM

C[C@@]1(F)[C@H](O)[C@@H](COP(=O)(O)OP(=O)(O)OP(=O)(O)O)O[C@H]1n1ccc(=O)[nH]c1=O [STP, 5′-triphosphate 2′-fluoro-2′-C-methyl uridine]
fold less efficient at blocking nsp8 labeling / UMPylation than AT-9010 [10]: ~5 fold | IC50 ([10]; IC50 of nsp8 labeling against GTP (FIG. 13C)): 5 ± 0.8 µM | IC50 ([10]; IC50 of nsp8 labeling against UTP (FIG. 13C)): 8.2 ± 1.4 µM | IC50 ([10]; IC50 of nsp8 labeling, competition with UTP (FIG. 13A)): 4.6 ± 0.2 µM | competition with UTP ([11]; 5-fold higher concentrations than UTP): not competitive | competition with UTP ([11]; STP: UTP 20:1): not competitive | discrimination as substrate of the SARS-CoV RDRP [6]: > 250 fold | inhibition of RNA synthesis from poly(C) template [12]: virtually inactive

CC(C)[C@H](N)C(=O)O[C@@H]1[C@@H](CO)O[C@@H](n2ccc(N)nc2=O)[C@]1(C)O [drawing 252]
CC50 at 3 days [1]: > 100 µM | EC50 [2, 14]: > 100 µM

CC(C)[C@H](N)C(=O)O[C@@H]1[C@@H](CO)O[C@@H](n2ccc(N)nc2=O)[C@]1(C)O [drawing 259]
CC50 [8]: > 100 µM

CCC(CC)COC(=O)[C@H](C)N[P@](=O)(OC[C@H]1O[C@@](C#N)(c2ccc3c(N)ncnn23)[C@H](O)[C@@H]1O)Oc1ccccc1 [drawing 237]
CC50 at 3 days [9, 16]: > 100 µM | EC50 [4, 17]: 7.2 µM

CNc1nc(N)nc2c1ncn2[C@@H]1O[C@H](CO[P@@](=O)(N[C@@H](C)C(=O)OC(C)C)Oc2ccccc2)[C@@H](O)[C@@]1(C)F [drawing 246]
CC50 at 3 days [1]: > 100 µM | EC50 [2, 14]: 1.6 µM

Cn1c[n+]([C@@H]2O[C@H](COP(=O)([O-])OP(=O)(O)OP(=O)(O)O)[C@@H](O)[C@H]2O)c2nc(N)[nH]c(=O)c21 [^m7GTP]
inhibition of nsp8 labeling / transfer of UTP to nsp8 [10]: poorly inhibit

CNc1nc(N)nc2c1ncn2[C@@H]1O[C@H](CO[P@@](=O)(N[C@@H](C)C(=O)OC(C)C)Oc2ccccc2)[C@@H](O)[C@@]1(C)F [drawing 253]
CC50 [8]: > 100 µM | EC50 [2]: 2 µM

CCC(CC)COC(=O)[C@H](C)N[P@](=O)(OC[C@H]1O[C@@](C#N)(c2ccc3c(N)ncnn23)[C@H](O)[C@@H]1O)Oc1ccccc1 [drawing 258]
CC50 [8]: > 100 µM | EC50 [2]: 5.5 µM

CNc1nc(N)nc2c1ncn2[C@@H]1O[C@H](CO[P@@](=O)(N[C@@H](C)C(=O)OC(C)C)Oc2ccccc2)[C@@H](O)[C@@]1(C)F [drawing 232]
CC50 at 3 days [9, 16]: > 100 µM | EC50 [4, 17]: 1.6 µM

CC(C)OC(=O)[C@H](C)N[P@](=O)(OC[C@H]1O[C@@H](n2ccc(=O)[nH]c2=O)[C@](C)(F)[C@@H]1O)Oc1ccccc1 [sofosbuvir, reference compound]
CC50 at 3 days ([9]; uninfected BHK-21 cells, BHK-21, Table 5): > 100 µM | fold less efficient at blocking nsp8 labeling / UMPylation than AT-9010 [10]: about 5 fold | EC50 [13]: > 100 µM

CC(C)OC(=O)[C@H](C)N[P@](=O)(OCC1O[C@@H](n2ccc(=O)[nH]c2=O)[C@](C)(F)[C@@H]1O)Oc1ccccc1 (stereo partly drawn) [drawing 255]
CC50 [8]: > 100 µM | EC50 [2]: > 100 µM

CNc1nc(N)nc2c1ncn2[C@@H]1O[C@H](CO[P@](=O)(N[C@@H](C)C(=O)OC(C)C)Oc2ccccc2)[C@@H](O)[C@@]1(C)F [drawing 247]
CC50 at 3 days [1]: > 100 µM | EC50 [2, 14]: 2 µM

CC(C)[C@H](N)C(=O)O[C@@H]1[C@@H](CO)O[C@@H](n2ccc(N)nc2=O)[C@]1(C)O [drawing 238]
CC50 at 3 days [9, 16]: > 100 µM | EC50 [4, 17]: > 100 µM

CC(C)(CO)C(=O)SCCOP(=O)(NCc1ccccc1)OC[C@H]1O[C@@H](n2cnc3c(=O)[nH]c(N)nc32)[C@](C)(O)[C@@H]1O (stereo partly drawn) [drawing 250]
CC50 at 3 days [1]: 82 µM | EC50 [2, 14]: 1.9 µM
